In ChEMBL document CHEMBL1201862, “PubChem BioAssay data set” (2004):
Blank lines part the entries; values can stand above or below the compound they belong to. Active and inactive are the calls of the source.

Columns and labels:
[1] = target: T1, G-protein coupled receptor 35 (Homo sapiens, UniProt Q9HC97); assay: inhibition of zaprinast-stimulated GPR35 beta-arrestin translocation – imaging, U2OS, beta-arrestin-GFP, zaprinast agonist, primary screen (AID 2058); format: functional;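 further: antagonist potency meaning inhibition of agonist-induced arrestin redistribution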
T1 sequence (Q9HC97 whole entry): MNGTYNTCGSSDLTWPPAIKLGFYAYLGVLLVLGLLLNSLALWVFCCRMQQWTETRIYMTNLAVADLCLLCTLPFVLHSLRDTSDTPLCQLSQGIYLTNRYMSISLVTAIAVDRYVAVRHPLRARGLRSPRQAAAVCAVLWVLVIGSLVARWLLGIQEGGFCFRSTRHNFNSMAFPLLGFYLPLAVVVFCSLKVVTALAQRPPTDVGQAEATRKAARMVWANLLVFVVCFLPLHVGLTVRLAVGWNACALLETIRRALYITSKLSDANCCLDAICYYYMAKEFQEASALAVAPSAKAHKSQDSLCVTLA

[2] = target: T2, Tyrosine-protein phosphatase non-receptor type 7 (Homo sapiens, UniProt P35236); assay: inhibition of hematopoietic tyrosine phosphatase HePTP – biochemical, set 2, SAR follow-up (AID 449736); format: functional
T2 sequence (P35236 whole entry): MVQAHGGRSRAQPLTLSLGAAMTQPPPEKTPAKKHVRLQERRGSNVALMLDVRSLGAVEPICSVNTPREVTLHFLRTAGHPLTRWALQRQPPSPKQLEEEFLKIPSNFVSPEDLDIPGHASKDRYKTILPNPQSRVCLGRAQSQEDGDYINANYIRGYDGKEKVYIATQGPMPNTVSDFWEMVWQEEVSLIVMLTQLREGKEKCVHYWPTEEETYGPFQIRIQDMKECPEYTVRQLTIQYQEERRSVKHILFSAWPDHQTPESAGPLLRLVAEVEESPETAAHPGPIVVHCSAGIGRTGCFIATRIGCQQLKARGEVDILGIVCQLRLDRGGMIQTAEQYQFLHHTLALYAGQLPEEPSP

[3] = target: T1, G-protein coupled receptor 35; assay: SAR Analysis for the identification of Selective Antagonists of ERK1/2 Activity in GPR35-Overexpressing U2OS Cells. [Related pubchem assays: 2079, 2058 ]; format: functional, cell-based
[4] = target: T3, Tyrosine-protein phosphatase non-receptor type 22 (Homo sapiens, UniProt Q9Y2R2); assay: SAR LYP1 Fluorescent Assay using OMFP substrate for In Vitro dose response studies - Set 3. [Related pubchem assays (depositor defined):AID1779, AID1784, AID2140, AID2686]; format: functional
T3 sequence (Q9Y2R2 whole entry): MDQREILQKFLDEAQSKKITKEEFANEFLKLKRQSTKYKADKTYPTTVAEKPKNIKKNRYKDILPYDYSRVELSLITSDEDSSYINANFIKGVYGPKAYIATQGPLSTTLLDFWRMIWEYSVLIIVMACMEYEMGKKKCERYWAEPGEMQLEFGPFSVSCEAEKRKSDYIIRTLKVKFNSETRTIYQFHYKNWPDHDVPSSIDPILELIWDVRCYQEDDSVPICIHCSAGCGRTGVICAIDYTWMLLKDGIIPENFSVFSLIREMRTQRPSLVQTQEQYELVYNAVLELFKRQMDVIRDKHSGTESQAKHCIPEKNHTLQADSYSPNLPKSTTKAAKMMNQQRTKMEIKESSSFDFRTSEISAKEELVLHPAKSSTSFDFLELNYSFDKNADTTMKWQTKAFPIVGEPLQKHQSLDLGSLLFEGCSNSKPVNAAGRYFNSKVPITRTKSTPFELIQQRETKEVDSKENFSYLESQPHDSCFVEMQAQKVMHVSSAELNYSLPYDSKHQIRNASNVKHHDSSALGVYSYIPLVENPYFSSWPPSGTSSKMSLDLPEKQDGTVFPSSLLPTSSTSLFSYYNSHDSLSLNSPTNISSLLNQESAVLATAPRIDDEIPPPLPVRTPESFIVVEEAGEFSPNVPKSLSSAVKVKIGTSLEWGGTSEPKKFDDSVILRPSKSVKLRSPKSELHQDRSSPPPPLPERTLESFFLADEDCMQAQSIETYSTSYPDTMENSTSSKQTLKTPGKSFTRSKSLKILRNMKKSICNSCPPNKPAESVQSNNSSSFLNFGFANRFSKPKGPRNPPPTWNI

[5] = target: G-protein coupled receptor 55 (Homo sapiens, UniProt Q9Y2T6); assay: blockers of GPR55 signalling, imaged – imaging, image-based, counter-screen for GPR35 antagonist project, SAR follow-up (AID 2397); format: functional
G-protein coupled receptor 55, sequence (Q9Y2T6 whole entry): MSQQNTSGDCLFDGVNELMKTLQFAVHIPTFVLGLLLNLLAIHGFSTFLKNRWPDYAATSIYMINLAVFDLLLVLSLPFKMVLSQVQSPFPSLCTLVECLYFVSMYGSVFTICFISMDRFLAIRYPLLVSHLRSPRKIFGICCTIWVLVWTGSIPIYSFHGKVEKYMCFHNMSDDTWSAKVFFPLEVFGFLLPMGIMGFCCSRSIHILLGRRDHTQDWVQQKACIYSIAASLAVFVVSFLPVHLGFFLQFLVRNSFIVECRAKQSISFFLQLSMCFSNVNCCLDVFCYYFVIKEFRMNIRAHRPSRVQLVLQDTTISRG

[6] = target: T4, Tyrosine-protein phosphatase non-receptor type 12 (Homo sapiens, UniProt Q05209); assay: SAR Selectivity Analysis of small molecule inhibitors of PEST using pCAP in a fluorescence assay. [Related pubchem assays (depositor defined):AID1779, AID1784, AID2135]; format: functional
T4 sequence (Q05209 whole entry): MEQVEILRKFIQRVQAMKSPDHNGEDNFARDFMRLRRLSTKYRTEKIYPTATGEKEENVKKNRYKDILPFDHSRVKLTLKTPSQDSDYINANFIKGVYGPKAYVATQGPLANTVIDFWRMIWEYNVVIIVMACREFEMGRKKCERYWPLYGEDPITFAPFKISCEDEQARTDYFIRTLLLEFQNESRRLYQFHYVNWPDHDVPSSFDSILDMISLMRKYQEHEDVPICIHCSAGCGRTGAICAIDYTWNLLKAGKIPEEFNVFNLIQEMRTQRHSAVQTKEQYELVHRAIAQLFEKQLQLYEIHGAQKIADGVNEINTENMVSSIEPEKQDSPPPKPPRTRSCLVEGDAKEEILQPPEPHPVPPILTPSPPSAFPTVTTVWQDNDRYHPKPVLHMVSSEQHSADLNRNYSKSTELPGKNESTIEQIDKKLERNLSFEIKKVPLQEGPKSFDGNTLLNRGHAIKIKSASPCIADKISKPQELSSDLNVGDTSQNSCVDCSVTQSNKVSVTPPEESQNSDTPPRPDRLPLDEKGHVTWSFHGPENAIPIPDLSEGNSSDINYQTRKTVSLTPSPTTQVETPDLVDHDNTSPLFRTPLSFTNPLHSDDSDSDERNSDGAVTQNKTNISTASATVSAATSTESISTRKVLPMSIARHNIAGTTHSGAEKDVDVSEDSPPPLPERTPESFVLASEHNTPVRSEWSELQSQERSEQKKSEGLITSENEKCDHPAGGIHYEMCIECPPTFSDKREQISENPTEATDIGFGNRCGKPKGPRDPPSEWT

[7] = target: T3, Tyrosine-protein phosphatase non-receptor type 22; assay: inhibition of lymphoid tyrosine phosphatase LYP – biochemical, pCAP fluorogenic substrate, fluorescence, set 3, SAR follow-up (AID 449727); format: functional
[8] = target: T5, Kappa-type opioid receptor (Homo sapiens, UniProt P41145); assay: kappa opioid receptor activation potency – imaging, image-based, SAR follow-up (AID 2359); format: functional
T5 sequence (P41145 whole entry): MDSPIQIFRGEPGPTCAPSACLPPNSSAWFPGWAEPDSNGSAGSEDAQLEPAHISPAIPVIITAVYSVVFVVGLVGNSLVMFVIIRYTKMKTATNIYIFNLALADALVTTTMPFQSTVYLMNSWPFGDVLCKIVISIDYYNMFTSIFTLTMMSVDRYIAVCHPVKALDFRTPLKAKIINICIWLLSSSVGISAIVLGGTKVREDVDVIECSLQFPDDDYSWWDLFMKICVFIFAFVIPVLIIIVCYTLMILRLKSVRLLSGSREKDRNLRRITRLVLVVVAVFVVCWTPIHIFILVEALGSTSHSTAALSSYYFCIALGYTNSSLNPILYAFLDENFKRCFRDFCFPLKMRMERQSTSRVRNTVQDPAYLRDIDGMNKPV

Mu-type opioid receptor [9] = target: T6, Mu-type opioid receptor (Homo sapiens, UniProt P35372); assay: HTS Image-Based Screen for Agonists of the MOR Receptor. [Related pubchem assays (depositor defined):AID1777, AID1785, AID1786, AID2133]; format: functional
T6 sequence (P35372 whole entry): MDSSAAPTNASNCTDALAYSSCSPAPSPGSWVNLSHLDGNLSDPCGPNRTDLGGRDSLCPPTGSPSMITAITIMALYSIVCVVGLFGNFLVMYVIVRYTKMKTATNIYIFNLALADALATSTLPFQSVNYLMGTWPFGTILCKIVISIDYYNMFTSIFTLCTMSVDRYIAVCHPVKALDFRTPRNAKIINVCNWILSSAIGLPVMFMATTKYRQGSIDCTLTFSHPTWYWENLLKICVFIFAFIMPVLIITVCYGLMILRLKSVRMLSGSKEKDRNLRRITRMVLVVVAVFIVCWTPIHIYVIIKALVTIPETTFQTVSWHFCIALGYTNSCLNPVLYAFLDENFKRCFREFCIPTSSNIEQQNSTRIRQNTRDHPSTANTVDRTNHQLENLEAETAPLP

[10] = target: T7, Delta-type opioid receptor (Homo sapiens, UniProt P41143); assay: DOR agonists, SAR follow-up, image-based (AID 2370); format: functional
T7 sequence (P41143 whole entry): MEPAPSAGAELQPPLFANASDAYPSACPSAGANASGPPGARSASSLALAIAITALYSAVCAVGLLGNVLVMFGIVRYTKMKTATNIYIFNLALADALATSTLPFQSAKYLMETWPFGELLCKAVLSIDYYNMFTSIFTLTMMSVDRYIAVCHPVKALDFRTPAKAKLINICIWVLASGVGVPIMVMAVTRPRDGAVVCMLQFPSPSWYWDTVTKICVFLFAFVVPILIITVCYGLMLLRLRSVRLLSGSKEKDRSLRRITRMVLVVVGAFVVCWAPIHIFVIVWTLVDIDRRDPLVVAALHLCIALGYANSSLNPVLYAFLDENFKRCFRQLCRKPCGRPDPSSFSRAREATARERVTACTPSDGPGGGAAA

[11] = target: T5, Kappa-type opioid receptor; format: functional
[12] = target: T5, Kappa-type opioid receptor; format: functional; remark: listed apart in the source
[13] = target: T7, Delta-type opioid receptor; assay: delta opioid receptor blockers – image-based, SAR follow-up (AID 2357); format: functional
Mu-type opioid receptor [14] = target: T6, Mu-type opioid receptor; assay: mu opioid receptor activators, image-based, SAR follow-up (AID 2352); format: functional
[15] = target: T5, Kappa-type opioid receptor; assay: SAR analysis of small molecule agonists of the kappa opioid receptor via a luminescent beta-arrestin assay. [Related pubchem assays (depositor defined):AID1777, AID1786, AID1966, AID2133, AID2136, AID2348, AID2352, AID2357, AID2359, AID2370, AID2420, AID2478, AID2491, AID2492, AID2493, AID2497, AID2498, AID2500, AID449737, AID488822, AID488842]; format: functional
[16] = target: T7, Delta-type opioid receptor; assay: HTS Image-Based Screen for Agonists of the DOR Receptor. [Related pubchem assays (depositor defined):AID1777, AID1786, AID2133]; format: functional
Mu-type opioid receptor [17] = target: T6, Mu-type opioid receptor; assay: mu opioid receptor blockers – image-based, SAR follow-up (AID 2420); format: functional;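 further: compounds added before stimulation of receptor with agonist DAMGO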
[18] = target: T7, Delta-type opioid receptor; assay: HTS Image-Based Screen for Antagonists of the DOR Receptor. [Related pubchem assays (depositor defined):AID1777, AID1785, AID1786, AID2133]; format: functional
[19] = target: T5, Kappa-type opioid receptor; assay: kappa opioid receptor blockers, image-based, SAR follow-up (AID 2348); format: functional
[20] = target: Sphingosine 1-phosphate receptor 5 (Homo sapiens, UniProt Q9H228); assay: Late stage counterscreen assay for S1P4 antagonists: Fluorescence dose response cell-based screening assay for antagonists of the Sphingosine 1-Phosphate Receptor 5 (S1P5). [Related pubchem assays (depositor defined):AID1510, AID1524, AID1692, AID1853, AID2332, AID489009, AID489017]; format: functional
Sphingosine 1-phosphate receptor 5, sequence (Q9H228 whole entry): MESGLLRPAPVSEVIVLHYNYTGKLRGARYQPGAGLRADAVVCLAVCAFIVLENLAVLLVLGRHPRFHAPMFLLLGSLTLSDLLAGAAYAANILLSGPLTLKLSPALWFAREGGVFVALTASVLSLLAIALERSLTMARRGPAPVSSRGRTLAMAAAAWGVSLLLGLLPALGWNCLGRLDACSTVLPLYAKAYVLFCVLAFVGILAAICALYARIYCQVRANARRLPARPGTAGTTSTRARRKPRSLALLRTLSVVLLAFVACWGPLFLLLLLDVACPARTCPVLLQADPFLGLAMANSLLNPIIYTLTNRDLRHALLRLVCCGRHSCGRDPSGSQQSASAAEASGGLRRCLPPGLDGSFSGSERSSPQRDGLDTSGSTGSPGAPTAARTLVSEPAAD

[21] = target: Sphingosine 1-phosphate receptor 3 (Homo sapiens, UniProt Q99500); assay: Late stage counterscreen assay for S1P4 antagonists: Fluorescence dose response cell-based screening assay for antagonists of the Sphingosine 1-Phosphate Receptor 3 (S1P3). [Related pubchem assays (depositor defined):AID1510, AID1524, AID1692, AID1853, AID2332, AID489009, AID489017]; format: functional
Sphingosine 1-phosphate receptor 3, sequence (Q99500 whole entry): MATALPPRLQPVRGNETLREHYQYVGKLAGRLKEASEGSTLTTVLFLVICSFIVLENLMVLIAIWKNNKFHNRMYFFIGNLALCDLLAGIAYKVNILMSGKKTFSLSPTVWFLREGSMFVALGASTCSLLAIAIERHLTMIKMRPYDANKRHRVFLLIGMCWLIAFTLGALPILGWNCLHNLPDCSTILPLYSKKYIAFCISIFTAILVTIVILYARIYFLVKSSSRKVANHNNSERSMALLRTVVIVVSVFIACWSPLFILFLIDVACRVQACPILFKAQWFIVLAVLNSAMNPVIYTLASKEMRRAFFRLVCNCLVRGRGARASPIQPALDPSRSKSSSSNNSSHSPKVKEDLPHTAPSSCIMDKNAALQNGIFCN

[22] = target: Sphingosine 1-phosphate receptor 2 (Homo sapiens, UniProt O95136); assay: Late stage counterscreen assay for S1P4 antagonists: Fluorescence dose response cell-based screening assay for antagonists of the Sphingosine 1-Phosphate Receptor 2 (S1P2). [Related pubchem assays (depositor defined):AID1510, AID1524, AID1692, AID1853, AID2332, AID489009, AID489017]; format: functional
Sphingosine 1-phosphate receptor 2, sequence (O95136 whole entry): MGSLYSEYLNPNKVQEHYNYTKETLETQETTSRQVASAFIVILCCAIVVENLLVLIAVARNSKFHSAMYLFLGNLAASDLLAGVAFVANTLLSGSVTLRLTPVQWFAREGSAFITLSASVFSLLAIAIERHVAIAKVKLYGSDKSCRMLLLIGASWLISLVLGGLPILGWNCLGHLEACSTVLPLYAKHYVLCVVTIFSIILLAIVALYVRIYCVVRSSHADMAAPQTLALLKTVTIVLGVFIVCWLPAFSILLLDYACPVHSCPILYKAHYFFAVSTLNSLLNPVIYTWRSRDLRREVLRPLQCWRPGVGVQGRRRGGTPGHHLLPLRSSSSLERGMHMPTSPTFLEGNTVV

[23] = target: T8, Sphingosine 1-phosphate receptor 4 (Homo sapiens, UniProt O95977); assay: potency of S1P4 blockers – cell-based, fluorescence, synthesized analogues, late-stage follow-up (AID 2346); format: functional
T8 sequence (O95977 whole entry): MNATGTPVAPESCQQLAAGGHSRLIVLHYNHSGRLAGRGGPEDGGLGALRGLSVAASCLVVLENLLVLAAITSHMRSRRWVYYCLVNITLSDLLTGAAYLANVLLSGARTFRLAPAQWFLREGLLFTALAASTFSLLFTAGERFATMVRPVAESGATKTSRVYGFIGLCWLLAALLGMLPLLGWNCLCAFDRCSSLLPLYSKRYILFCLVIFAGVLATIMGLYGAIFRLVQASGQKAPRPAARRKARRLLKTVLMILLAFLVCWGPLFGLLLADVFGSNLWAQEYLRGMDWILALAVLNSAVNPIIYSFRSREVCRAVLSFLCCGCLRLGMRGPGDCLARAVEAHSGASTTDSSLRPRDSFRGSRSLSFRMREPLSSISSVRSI

[24] = target: Sphingosine 1-phosphate receptor 1 (Homo sapiens, UniProt P21453); assay: Late stage counterscreen assay for S1P4 antagonists: Fluorescence dose response cell-based screening assay for antagonists of the Sphingosine 1-Phosphate Receptor 1 (S1P1). [Related pubchem assays (depositor defined):AID1510, AID1524, AID1692, AID1853, AID2332, AID489009, AID489017]; format: functional
Sphingosine 1-phosphate receptor 1, sequence (P21453 whole entry): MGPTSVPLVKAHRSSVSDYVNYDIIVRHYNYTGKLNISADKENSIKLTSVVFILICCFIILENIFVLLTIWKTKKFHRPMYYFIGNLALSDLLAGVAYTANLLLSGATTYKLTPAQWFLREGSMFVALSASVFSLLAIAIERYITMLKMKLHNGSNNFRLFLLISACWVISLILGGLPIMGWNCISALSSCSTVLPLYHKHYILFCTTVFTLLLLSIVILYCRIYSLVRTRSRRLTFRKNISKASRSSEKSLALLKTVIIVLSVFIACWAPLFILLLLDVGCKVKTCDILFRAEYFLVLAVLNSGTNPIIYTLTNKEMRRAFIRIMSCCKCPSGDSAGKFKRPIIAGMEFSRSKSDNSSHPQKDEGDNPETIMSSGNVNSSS

IC50 [1]: 1.16 µM (active)
IC50 [2]: 1.89 µM (active)
IC50 [3]: 3.29 µM (active)
IC50 [4]: 72.2 µM (active)
IC50 [5]: > 32 µM (inactive)
IC50 [6]: 15.8 µM (active)
IC50 [7]: 79.5 µM (active)
SMILES: O=C(CCCN1C(=O)/C(=C\c2ccccc2)SC1=S)Nc1ccc(C(=O)O)cc1

EC50 [8]: 5.31 µM (active)
EC50 (Mu-type opioid receptor [9]): > 32 µM (inactive)
EC50 [10]: > 32 µM (inactive)
EC50 [11]: 3.16 µM
EC50 [12]: 4.27 µM
IC50 [13]: > 32 µM (inactive)
EC50 (Mu-type opioid receptor [14]): > 32 µM (inactive)
EC50 [15]: 8.1 µM (active)
EC50 [16]: > 32 µM (inactive)
IC50 (Mu-type opioid receptor [17]): > 32 µM (inactive)
IC50 [18]: > 32 µM (inactive)
IC50 [19]: > 32 µM (inactive)
SMILES: CCCCN(Cc1cc2ccccc2nc1O)C(=O)c1ccccn1

IC50 [20]: > 25 µM (inactive)
IC50 [21]: > 25 µM (inactive)
IC50 [22]: > 25 µM (inactive)
IC50 [23]: 0.269 µM (active)
IC50 [24]: > 25 µM (inactive)
SMILES: CCc1cccc(C)c1NC(=O)c1ccc(-c2ccccc2Cl)o1
